“And” between values parts separate entries of the source, which are not always exact repeats. Equal values may be shown once. Toxic doses and inconclusive results are not listed.
Tested on: P388 leukemia ip, CD2F1 mice, survival T/C
Experiment: NCI In Vivo Anticancer Drug Screen. Data for tumor model P388 Leukemia (intraperitoneal) in CD2F1 (CDF1) mice
Conditions: endpoint: median survival time, higher = longer survival
Summary of the method: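 Mice carrying the transplanted tumor received test compound or vehicle. Survival was recorded in each group, and the value is the treated-group measurement divided by that of the vehicle-treated control group.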

[1] = dose: 25.0 mg/kg/injection, schedule: Q01DX005 (ip), vehicle: saline with Tween-80
[2] = dose: 50.0 mg/kg/injection, schedule: Q01DX005 (ip), vehicle: saline with Tween-80
[3] = dose: 100.0 mg/kg/injection, schedule: Q01DX005 (ip), vehicle: saline with Tween-80
[4] = dose: 200.0 mg/kg/injection, schedule: Q01DX005 (ip), vehicle: saline with Tween-80
[5] = dose: 50.0 mg/kg/injection, schedule: Q01DX005 (ip), vehicle: Klucel (hydroxypropylcellulose) (HPC)
[6] = dose: 100.0 mg/kg/injection, schedule: Q01DX005 (ip), vehicle: Klucel (hydroxypropylcellulose) (HPC)
[7] = dose: 200.0 mg/kg/injection, schedule: Q01DX005 (ip), vehicle: Klucel (hydroxypropylcellulose) (HPC)
[8] = dose: 60.0 mg/kg/injection, schedule: Q01DX005 (ip), vehicle: saline with Tween-80
[9] = dose: 120.0 mg/kg/injection, schedule: Q01DX005 (ip), vehicle: saline with Tween-80
[10] = dose: 240.0 mg/kg/injection, schedule: Q01DX005 (ip), vehicle: saline with Tween-80
[11] = dose: 50.0 mg/kg/injection, schedule: Q01DX009 (ip), vehicle: saline with Tween-80
[12] = dose: 100.0 mg/kg/injection, schedule: Q01DX009 (ip), vehicle: saline with Tween-80

## CC(C)NC(=O)OCc1c(COC(=O)NC(C)C)c(-c2ccc(Cl)c(Cl)c2)n2c1SCC2
[1]
  T/C: 105 % of control
[2]
  T/C: 115 % of control
[3]
  T/C: 116 % of control and 121 % of control
[4]
  T/C: 117 % of control and 123 % of control
dose: 400.0 mg/kg/injection, schedule: Q01DX005 (ip), vehicle: saline with Tween-80
  T/C: 122 % of control

## O=C1c2cccc([N+](=O)[O-])c2C(=O)c2c1oc1ccc3ccccc3c21
[5]
  T/C: 104 % of control
[6]
  T/C: 102 % of control
[7]
  T/C: 96 % of control

## OCCOCCN1CCN(CCCN2c3ccccc3Sc3ccc(C(F)(F)F)cc32)CC1
dose: 12.5 mg/kg/injection, schedule: Q04DX003 (ip), vehicle: saline
  T/C: 114 % of control
dose: 25.0 mg/kg/injection, schedule: Q04DX003 (ip), vehicle: saline
  T/C: 117 % of control

## O=S1(=O)CCN(Cc2ccccn2)CC1
dose: 50.0 mg/kg/injection, schedule: Q01DX009 (ip), vehicle: saline
  T/C: 94 % of control
dose: 100.0 mg/kg/injection, schedule: Q01DX009 (ip), vehicle: saline
  T/C: 94 % of control
dose: 200.0 mg/kg/injection, schedule: Q01DX009 (ip), vehicle: saline
  T/C: 91 % of control

## FC(F)(F)C1(C(F)(F)F)O[P+]2(OC(C(F)(F)F)(C(F)(F)F)c3ccccc32)c2ccccc21
[5]
  T/C: 97 % of control
[6]
  T/C: 105 % of control
[7]
  T/C: 106 % of control

## CN1NC(c2ccccc2)=C(C#N)C(=O)CC1c1cccs1 (stereo not drawn)
[8]
  T/C: 95 % of control
[9]
  T/C: 88 % of control
[10]
  T/C: 96 % of control

## OCC1=C(CO)CC=CC1
[8]
  T/C: 96 % of control
[9]
  T/C: 96 % of control
[10]
  T/C: 95 % of control

## C=C(F)F
[5]
  T/C: 95 % of control
[6]
  T/C: 101 % of control
[7]
  T/C: 103 % of control

## COC(=O)/C=C/c1c2ccccc2cc2ccccc12
[8]
  T/C: 96 % of control
[9]
  T/C: 96 % of control
[10]
  T/C: 90 % of control

## O=C(O)CC1CCC1CC(=O)O (stereo not drawn)
[11]
  T/C: 95 % of control
[12]
  T/C: 95 % of control

## CC1(C)C[C@H](O)[C@H]2O[C@@]2(C)C1
dose: 100.0 mg/kg/injection, schedule: Q04DX002 (ip), vehicle: saline
  T/C: 95 % of control
dose: 200.0 mg/kg/injection, schedule: Q04DX002 (ip), vehicle: saline
  T/C: 96 % of control
dose: 400.0 mg/kg/injection, schedule: Q04DX002 (ip), vehicle: saline
  T/C: 105 % of control

## O=C(O)C1CCC(=O)N1Cc1csc(-c2ccccc2)n1 (stereo not drawn)
[8]
  T/C: 103 % of control
[9]
  T/C: 93 % of control
[10]
  T/C: 99 % of control

## CCC1(CC)CC1C(=O)O (stereo not drawn)
[5]
  T/C: 93 % of control
[6]
  T/C: 89 % of control
[7]
  T/C: 89 % of control

## O=C1c2ccccc2C(=O)N1OCc1csc(-c2ccccc2)n1
[5]
  T/C: 95 % of control
[6]
  T/C: 101 % of control

## CC1(C)OCC(C(O)c2nc3ccccc3nc2C(=O)Nc2ccccc2N)O1 (stereo not drawn)
dose: 100.0 mg/kg/injection, schedule: Q01DX001 (ip), vehicle: saline with Tween-80
  T/C: 97 % of control
dose: 200.0 mg/kg/injection, schedule: Q01DX001 (ip), vehicle: saline with Tween-80
  T/C: 92 % of control
dose: 400.0 mg/kg/injection, schedule: Q01DX001 (ip), vehicle: saline with Tween-80
  T/C: 86 % of control

## CN1C(=O)C(=O)N(CCCN2CCN(CCCN3C(=O)C(=O)N(C)C3=O)CC2)C1=O
dose: 50.0 mg/kg/injection, schedule: Q01DX009 (ip), vehicle: Klucel (hydroxypropylcellulose) (HPC)
  T/C: 104 % of control
dose: 100.0 mg/kg/injection, schedule: Q01DX009 (ip), vehicle: Klucel (hydroxypropylcellulose) (HPC)
  T/C: 106 % of control
dose: 200.0 mg/kg/injection, schedule: Q01DX009 (ip), vehicle: Klucel (hydroxypropylcellulose) (HPC)
  T/C: 98 % of control

## O=C(Nc1ccc(C2=NCCN2)cc1)Nc1cccc(NC(=O)Nc2cccc(C3=NCCN3)c2)c1
dose: 0.75 mg/kg/injection, schedule: Q04DX003 (ip), vehicle: saline with Tween-80
  T/C: 104 % of control
dose: 1.5 mg/kg/injection, schedule: Q04DX003 (ip), vehicle: saline with Tween-80
  T/C: 118 % of control
dose: 8.0 mg/kg/injection, schedule: Q01DX009 (ip), vehicle: saline with Tween-80
  T/C: 163 % of control
dose: 12.0 mg/kg/injection, schedule: Q01DX009 (ip), vehicle: saline with Tween-80
  T/C: 254 % of control
dose: 12.5 mg/kg/injection, schedule: Q04DX003 (ip), vehicle: saline with Tween-80
  T/C: 150 % of control
dose: 18.0 mg/kg/injection, schedule: Q01DX009 (ip), vehicle: saline with Tween-80
  T/C: 272 % of control
dose: 100.0 mg/kg/injection, schedule: Q04DX003 (ip), vehicle: saline
  T/C: 104 % of control

## O=C1CC(c2ccccc2)C(c2ccccc2)C(=O)O1 (stereo not drawn)
dose: 100.0 mg/kg/injection, schedule: Q04DX003 (ip), vehicle: Klucel (hydroxypropylcellulose) (HPC)
  T/C: 87 % of control
dose: 200.0 mg/kg/injection, schedule: Q04DX003 (ip), vehicle: Klucel (hydroxypropylcellulose) (HPC)
  T/C: 93 % of control
dose: 400.0 mg/kg/injection, schedule: Q04DX003 (ip), vehicle: Klucel (hydroxypropylcellulose) (HPC)
  T/C: 91 % of control

## CC(=O)O[C@H]1[C@@H](OC(C)=O)[C@]2(C)[C@H](CC[C@@]3(C)[C@H](c4ccoc4)C[C@H]4O[C@@]423)[C@@]2(C)C=CC(=O)OC(C)(C)[C@H]12
dose: 1.25 mg/kg/injection, schedule: Q04DX003 (ip), vehicle: Klucel (hydroxypropylcellulose) (HPC)
  T/C: 94 % of control
dose: 2.5 mg/kg/injection, schedule: Q04DX003 (ip), vehicle: Klucel (hydroxypropylcellulose) (HPC)
  T/C: 88 % of control
dose: 5.0 mg/kg/injection, schedule: Q04DX003 (ip), vehicle: Klucel (hydroxypropylcellulose) (HPC)
  T/C: 93 % of control
dose: 10.0 mg/kg/injection, schedule: Q04DX003 (ip), vehicle: Klucel (hydroxypropylcellulose) (HPC)
  T/C: 88 % of control

## Cn1c2ccccc2c2cnn3c(-c4ccccc4)nnc3c21
dose: 100.0 mg/kg/injection, schedule: Q01DX001 (ip), vehicle: Klucel (hydroxypropylcellulose) (HPC)
  T/C: 105 % of control
dose: 200.0 mg/kg/injection, schedule: Q01DX001 (ip), vehicle: Klucel (hydroxypropylcellulose) (HPC)
  T/C: 100 % of control
dose: 400.0 mg/kg/injection, schedule: Q01DX001 (ip), vehicle: Klucel (hydroxypropylcellulose) (HPC)
  T/C: 100 % of control

## CC(=O)ON1C(=O)C2C3C=CC(O3)C2C1=O (stereo not drawn)
dose: 3.13 mg/kg/injection, schedule: Q01DX009 (ip), vehicle: water
  T/C: 103 % of control
dose: 6.25 mg/kg/injection, schedule: Q01DX009 (ip), vehicle: water
  T/C: 112 % of control
dose: 12.5 mg/kg/injection, schedule: Q01DX009 (ip), vehicle: water
  T/C: 100 % of control
dose: 25.0 mg/kg/injection, schedule: Q01DX009 (ip), vehicle: water
  T/C: 102 % of control
dose: 50.0 mg/kg/injection, schedule: Q01DX009 (ip), vehicle: water
  T/C: 93 % of control

## C/C(=N\NC(=S)N1CCCC1)c1nccs1
dose: 12.5 mg/kg/injection, schedule: Q01DX005 (ip), vehicle: saline with Tween-80
  T/C: 109 % of control
[1]
  T/C: 104 % of control
[2]
  T/C: 108 % of control and 114 % of control

## COc1cc(NS(C)(=O)=O)ccc1Nc1c2ccc(N(C)C)cc2nc2cc(N(C)C)ccc12
dose: 7.5 mg/kg/injection, schedule: Q01DX005 (ip), vehicle: Klucel (hydroxypropylcellulose) (HPC)
  T/C: 162 % of control
dose: 15.0 mg/kg/injection, schedule: Q01DX005 (ip), vehicle: Klucel (hydroxypropylcellulose) (HPC)
  T/C: 168 % of control and 173 % of control
dose: 30.0 mg/kg/injection, schedule: Q01DX005 (ip), vehicle: Klucel (hydroxypropylcellulose) (HPC)
  T/C: 174 % of control and 182 % of control
dose: 60.0 mg/kg/injection, schedule: Q01DX005 (ip), vehicle: Klucel (hydroxypropylcellulose) (HPC)
  T/C: 98 % of control and 86 % of control

## COC(=O)CCC1=C(OC)C(=O)C(OC)=CC1=O
[11]
  T/C: 112 % of control
[12]
  T/C: 100 % of control

## O=C(O)c1cccc(-c2nn[nH]n2)c1
[5]
  T/C: 93 % of control
[6]
  T/C: 90 % of control
[7]
  T/C: 102 % of control

## O=C1CSC(c2cccc(O)c2O)N1c1nncs1 (stereo not drawn)
[8]
  T/C: 111 % of control
[9]
  T/C: 96 % of control
[10]
  T/C: 96 % of control

## CNC(=O)c1c(-c2ccc(F)cc2)noc1C
[8]
  T/C: 103 % of control
[9]
  T/C: 100 % of control
[10]
  T/C: 103 % of control

## CCCCCNCC(=O)N1CCCC1C(=O)OC(C)(C)C (stereo not drawn)
[2]
  T/C: 97 % of control
[3]
  T/C: 105 % of control
[4]
  T/C: 103 % of control

## NC(=O)NC1CCCC1
dose: 100.0 mg/kg/injection, schedule: Q04DX003 (ip), vehicle: saline with Tween-80
  T/C: 100 % of control
dose: 200.0 mg/kg/injection, schedule: Q04DX003 (ip), vehicle: saline with Tween-80
  T/C: 100 % of control
dose: 400.0 mg/kg/injection, schedule: Q04DX003 (ip), vehicle: saline with Tween-80
  T/C: 100 % of control

From PubChem BioAssay AID330 (DTP/NCI, 2004)
